The results in this text go back to patent publication US20240270762A1, “PENICILLIN-BINDING PROTEIN INHIBITORS” (priority 2021, published 2024).

In brackets after ≈: the same amount, converted by molar mass. Where only a bound is given, the exact number is not on record here.

One experiment deals with N. gonorrhoeae CDC-0197. Description: Liquid broth MIC in Fastidious broth. The settings on record: Neisseria gonorrhoeae, CDC0197, read-out: Minimum Inhibitory Concentration, CDC-0197.
Experiment [1] has as its target T1, PBP1a from Acinetobacter baumannii (ATCC 19606) (Acinetobacter baumannii, UniProt A0ABX6CK30).
T1 sequence (A0ABX6CK30 1-851): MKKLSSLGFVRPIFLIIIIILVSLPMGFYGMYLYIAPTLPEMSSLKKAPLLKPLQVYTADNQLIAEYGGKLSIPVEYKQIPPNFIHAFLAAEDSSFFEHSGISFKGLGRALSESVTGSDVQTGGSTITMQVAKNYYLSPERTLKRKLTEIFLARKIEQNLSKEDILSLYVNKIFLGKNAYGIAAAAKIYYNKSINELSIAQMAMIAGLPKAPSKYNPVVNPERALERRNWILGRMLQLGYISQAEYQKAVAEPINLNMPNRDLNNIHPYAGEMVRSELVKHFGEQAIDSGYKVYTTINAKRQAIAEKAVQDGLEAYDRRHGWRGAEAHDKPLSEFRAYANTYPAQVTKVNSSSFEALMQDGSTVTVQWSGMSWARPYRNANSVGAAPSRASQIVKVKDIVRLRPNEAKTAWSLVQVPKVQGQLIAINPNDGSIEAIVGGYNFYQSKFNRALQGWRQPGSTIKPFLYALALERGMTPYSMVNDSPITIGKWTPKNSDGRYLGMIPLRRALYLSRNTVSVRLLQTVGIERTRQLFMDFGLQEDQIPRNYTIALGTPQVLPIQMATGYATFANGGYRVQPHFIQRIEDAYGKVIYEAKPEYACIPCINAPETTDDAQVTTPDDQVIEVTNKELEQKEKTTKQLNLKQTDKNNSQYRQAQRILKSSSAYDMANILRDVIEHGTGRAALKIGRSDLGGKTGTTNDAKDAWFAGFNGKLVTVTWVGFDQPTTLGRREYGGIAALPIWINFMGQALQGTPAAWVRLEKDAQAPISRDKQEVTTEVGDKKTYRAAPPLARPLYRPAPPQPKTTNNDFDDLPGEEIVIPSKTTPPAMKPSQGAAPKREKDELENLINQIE
Description: Bocillin-FL fluorescence polarization competition binding, A. baumannii PBP1a. The settings on record: fluorescence polarization competition binding assay using Bocillin-FL; read-out: A. baumannii PBP1a Potency. In short, it runs like this:
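Purified PBPs pre-incubated with inhibitor (E. coli PBP3 1.5 μM, 30 min; P. aeruginosa PBP3 0.75 μM, A. baumannii PBP1a 1 μM and PBP3 0.2 μM, 15 min), then Bocillin-FL 0.1 μM (0.05 μM for PBP1a) added; FP read up to 60 min. EC50 = concentration halving bound Bocillin-FL.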
(In general: Polarisation of emitted light reports the rotation of a fluorescent probe.)

In another experiment the test system is N. gonorrhoeae WHO L. Briefly: Liquid broth MIC in Fastidious broth. The settings on record: Neisseria gonorrhoeae, read-out: Minimum Inhibitory Concentration, WHO L.
A further experiment concerns N. gonorrhoeae FA1090. Briefly: Liquid broth MIC in Fastidious broth. Particulars: Neisseria gonorrhoeae, FA1090, read-out: Minimum Inhibitory Concentration, FA 1090.
Another experiment relates to N. gonorrhoeae WHO M. Description: Liquid broth MIC in Fastidious broth. Particulars: Neisseria gonorrhoeae, read-out: Minimum Inhibitory Concentration, WHO M.
The next experiment concerns N. gonorrhoeae WHO K. Briefly: Liquid broth MIC in Fastidious broth. The settings on record: Neisseria gonorrhoeae, read-out: Minimum Inhibitory Concentration, WHO K.
A further experiment relates to N. gonorrhoeae MS11. Briefly: Liquid broth MIC in Fastidious broth. Particulars: Neisseria gonorrhoeae, MS11, read-out: Minimum Inhibitory Concentration, MS11.
The next experiment concerns N. gonorrhoeae WHO Q. Briefly: Liquid broth MIC in Fastidious broth. The settings on record: Neisseria gonorrhoeae, read-out: Minimum Inhibitory Concentration, WHO Q.

Description for N. gonorrhoeae WHO M: Liquid broth-based assays were used for antibacterial testing of PBP inhibitors in Neisseria gonorrhoeae. Briefly, cryo-preserved bacterial cultures of clinical strains were streaked for isolation on Chocolate Agar (72 g/L (2×) GC Agar Base (BD #228950) and 2% (2×) Hemoglobin was autoclaved at 121° C. for 20 minutes to sterilize. Once cooled to ˜50° C. the 2×GC Agar Base and 2× Hemoglobin solutions are combined and 1% IsoVitaleX Enrichment (BD #211876) was added to the solution). Strains were incubated at 36° C. and 5% CO2 to allow growth of colonies, 24 hours before inoculum preparation. 2-fold serial dilutions of test compounds were conducted in a 96 well plate with a final volume of 75 μL per well at 2-fold the final desired concentration in Fastidious broth (Remel #R07664). For preparation of assay inoculum, a direct suspension was prepared by aseptically swabbing 10-15 colonies from agar plates into culture tubes containing 2 mL of fresh sterile saline. After the dilution plates were set up, direct suspensions were then diluted in a cuvette containing sterile saline and the optical density was measured at 600 nm. Inocula were diluted such that 75 μL of this culture in Fastidious broth results in a starting bacterial concentration of 5×10^5 CFU/mL when added to the dilution plates. The plates were incubated for ˜24 hours at 36° C. and 5% CO2.

As for `O=C(NCCCN1CCN(C(=O)N[C@@H](C(=O)N[C@H]2Cc3ccc(F)c(C(=O)O)c3OB2O)c2cc(F)c(O)c(O)c2Cl)C(=O)C1=O)c1ccncc1` [Example 294, (R)-3-((R)-2-(2-chloro-5-fluoro-3,4-dihydroxyphenyl)-2-(4-(3-(isonicotinamido)propyl)-2,3-dioxopiperazine-1-carboxamido)acetamido)-7-fluoro-2-hydroxy-3,4-dihydro-2H-benzo[e][1,2]oxaborinine-8-carboxylic acid], the MIC in the experiment with N. gonorrhoeae CDC-0197 was above 64 µg/mL; in the experiment on N. gonorrhoeae WHO L, above 64 µg/mL; with N. gonorrhoeae FA1090 it was 1 to 2 µg/mL (≈ 1.34 to 2.69 µM); with N. gonorrhoeae WHO M it was 16 to 32 µg/mL (≈ 21.5 to 43 µM); in the experiment on N. gonorrhoeae WHO K, above 64 µg/mL; in the experiment with N. gonorrhoeae MS11, 16 to 32 µg/mL (≈ 21.5 to 43 µM). The MIC in the experiment with N. gonorrhoeae WHO Q was above 64 µg/mL. In addition, the IC50 in experiment [1] was above 250 µM.
For the molecule `O=C(NCCCN1CCN(C(=O)NC(C(=O)N[C@H]2Cc3ccc(F)c(C(=O)O)c3OB2O)c2cc(F)c(O)c(O)c2Cl)C(=O)C1=O)c1ccncc1Cl` (stereo partly drawn) [Example 295, (3R)-3-(2-(2-chloro-5-fluoro-3,4-dihydroxyphenyl)-2-(4-(3-(3-chloroisonicotinamido)propyl)-2,3-dioxopiperazine-1-carboxamido)acetamido)-7-fluoro-2-hydroxy-3,4-dihydro-2H-benzo[e][1,2]oxaborinine-8-carboxylic acid], the MIC with N. gonorrhoeae CDC-0197 is above 64 µg/mL; in the experiment with N. gonorrhoeae WHO L, above 64 µg/mL; in the experiment on N. gonorrhoeae FA1090, 1 to 2 µg/mL (≈ 1.28 to 2.57 µM); in the experiment with N. gonorrhoeae WHO M it was 16 to 32 µg/mL (≈ 20.5 to 41.1 µM); in the experiment on N. gonorrhoeae WHO K, above 64 µg/mL; in the experiment on N. gonorrhoeae MS11 it was 16 to 32 µg/mL (≈ 20.5 to 41.1 µM). For the same molecule, the MIC in the experiment with N. gonorrhoeae WHO Q was above 64 µg/mL. The IC50 in experiment [1] is above 250 µM.
With `O=C(NCCCN1CCN(C(=O)N[C@@H](C(=O)N[C@H]2Cc3ccc(F)c(C(=O)O)c3OB2O)c2cc(F)c(O)c(O)c2Cl)C(=O)C1=O)c1ccncc1O` [Example 296, (R)-3-((R)-2-(2-chloro-5-fluoro-3,4-dihydroxyphenyl)-2-(4-(3-(3-hydroxyisonicotinamido)propyl)-2,3-dioxopiperazine-1-carboxamido)acetamido)-7-fluoro-2-hydroxy-3,4-dihydro-2H-benzo[e][1,2]oxaborinine-8-carboxylic acid], the MIC was above 64 µg/mL in the experiment with N. gonorrhoeae CDC-0197; above 64 µg/mL in the experiment on N. gonorrhoeae WHO L; 1 to 2 µg/mL (≈ 1.31 to 2.63 µM) in the experiment with N. gonorrhoeae FA1090; 16 to 32 µg/mL (≈ 21 to 42.1 µM) in the experiment with N. gonorrhoeae WHO M; above 64 µg/mL with N. gonorrhoeae WHO K; 16 to 32 µg/mL (≈ 21 to 42.1 µM) in the experiment on N. gonorrhoeae MS11. Further, the MIC in the experiment on N. gonorrhoeae WHO Q was above 64 µg/mL. Moreover, the IC50 in experiment [1] was above 250 µM.
In the case of `Cc1cnccc1C(=O)NCCCN1CCN(C(=O)NC(C(=O)N[C@H]2Cc3ccc(F)c(C(=O)O)c3OB2O)c2cc(F)c(O)c(O)c2Cl)C(=O)C1=O` (stereo partly drawn) [Example 297, (3R)-3-(2-(2-chloro-5-fluoro-3,4-dihydroxyphenyl)-2-(4-(3-(3-methylisonicotinamido)propyl)-2,3-dioxopiperazine-1-carboxamido)acetamido)-7-fluoro-2-hydroxy-3,4-dihydro-2H-benzo[e][1,2]oxaborinine-8-carboxylic acid], the MIC with N. gonorrhoeae CDC-0197 is above 64 µg/mL; with N. gonorrhoeae WHO L, above 64 µg/mL; in the experiment on N. gonorrhoeae FA1090 it was 1 to 2 µg/mL (≈ 1.32 to 2.64 µM); in the experiment on N. gonorrhoeae WHO M, 16 to 32 µg/mL (≈ 21.1 to 42.2 µM); with N. gonorrhoeae WHO K, above 64 µg/mL; in the experiment on N. gonorrhoeae MS11 it was 16 to 32 µg/mL (≈ 21.1 to 42.2 µM). Moreover, the MIC in the experiment on N. gonorrhoeae WHO Q was above 64 µg/mL. Further, in experiment [1], the IC50 is above 250 µM.
As for `Cc1cc(C(=O)NCCCN2CCN(C(=O)N[C@@H](C(=O)N[C@H]3Cc4ccc(F)c(C(=O)O)c4OB3O)c3cc(F)c(O)c(O)c3Cl)C(=O)C2=O)ccn1` [Example 298, (R)-3-((R)-2-(2-chloro-5-fluoro-3,4-dihydroxyphenyl)-2-(4-(3-(2-methylisonicotinamido)propyl)-2,3-dioxopiperazine-1-carboxamido)acetamido)-7-fluoro-2-hydroxy-3,4-dihydro-2H-benzo[e][1,2]oxaborinine-8-carboxylic acid], the MIC with N. gonorrhoeae CDC-0197 is above 64 µg/mL; in the experiment on N. gonorrhoeae WHO L it was above 64 µg/mL; with N. gonorrhoeae FA1090, 1 to 2 µg/mL (≈ 1.32 to 2.64 µM); with N. gonorrhoeae WHO M it was 16 to 32 µg/mL (≈ 21.1 to 42.2 µM); in the experiment on N. gonorrhoeae WHO K, above 64 µg/mL; in the experiment with N. gonorrhoeae MS11, 16 to 32 µg/mL (≈ 21.1 to 42.2 µM). Moreover, the MIC in the experiment on N. gonorrhoeae WHO Q was above 64 µg/mL. In addition, the IC50 in experiment [1] is above 250 µM.
Turning to `O=C(NCCCN1CCN(C(=O)N[C@H](C(=O)N[C@H]2Cc3ccc(F)c(C(=O)O)c3OB2O)c2cc(F)c(O)c(O)c2Cl)C(=O)C1=O)c1ccnc(F)c1F` [Example 299, (R)-3-((S)-2-(2-chloro-5-fluoro-3,4-dihydroxyphenyl)-2-(4-(3-(2,3-difluoroisonicotinamido)propyl)-2,3-dioxopiperazine-1-carboxamido)acetamido)-7-fluoro-2-hydroxy-3,4-dihydro-2H-benzo[e][1,2]oxaborinine-8-carboxylic acid], the MIC in the experiment on N. gonorrhoeae CDC-0197 is above 64 µg/mL; in the experiment with N. gonorrhoeae WHO L it was above 64 µg/mL; in the experiment on N. gonorrhoeae FA1090, 16 to 32 µg/mL (≈ 20.5 to 41 µM); in the experiment with N. gonorrhoeae WHO M it was above 64 µg/mL; in the experiment with N. gonorrhoeae WHO K it was above 64 µg/mL; in the experiment on N. gonorrhoeae MS11, above 64 µg/mL. For the same molecule, in the experiment on N. gonorrhoeae WHO Q, the MIC was above 64 µg/mL. Moreover, in experiment [1], the IC50 was above 250 µM.
As for `O=C(NCCCN1CCN(C(=O)N[C@@H](C(=O)N[C@H]2Cc3ccc(F)c(C(=O)O)c3OB2O)c2cc(F)c(O)c(O)c2Cl)C(=O)C1=O)c1ccnc(F)c1F` [Example 300, (R)-3-((R)-2-(2-chloro-5-fluoro-3,4-dihydroxyphenyl)-2-(4-(3-(2,3-difluoroisonicotinamido)propyl)-2,3-dioxopiperazine-1-carboxamido)acetamido)-7-fluoro-2-hydroxy-3,4-dihydro-2H-benzo[e][1,2]oxaborinine-8-carboxylic acid], the MIC with N. gonorrhoeae CDC-0197 is above 64 µg/mL; with N. gonorrhoeae WHO L it was above 64 µg/mL; with N. gonorrhoeae FA1090, 4 to 8 µg/mL (≈ 5.12 to 10.2 µM); with N. gonorrhoeae WHO M, 16 to 32 µg/mL (≈ 20.5 to 41 µM); in the experiment with N. gonorrhoeae WHO K, above 64 µg/mL; in the experiment with N. gonorrhoeae MS11, 16 to 32 µg/mL (≈ 20.5 to 41 µM). For the same molecule, the MIC in the experiment on N. gonorrhoeae WHO Q is above 64 µg/mL. The IC50 in experiment [1] was above 250 µM.
Regarding `Cc1cc(C(=O)NCCCN2CCN(C(=O)NC(C(=O)N[C@H]3Cc4ccc(F)c(C(=O)O)c4OB3O)c3cc(F)c(O)c(O)c3Cl)C(=O)C2=O)c(F)cn1` (stereo partly drawn) [Example 301, (3R)-3-(2-(2-chloro-5-fluoro-3,4-dihydroxyphenyl)-2-(4-(3-(5-fluoro-2-methylisonicotinamido)propyl)-2,3-dioxopiperazine-1-carboxamido)acetamido)-7-fluoro-2-hydroxy-3,4-dihydro-2H-benzo[e][1,2]oxaborinine-8-carboxylic acid], the MIC in the experiment with N. gonorrhoeae CDC-0197 is above 64 µg/mL; with N. gonorrhoeae WHO L, above 64 µg/mL; with N. gonorrhoeae FA1090, 4 to 8 µg/mL (≈ 5.15 to 10.3 µM); with N. gonorrhoeae WHO M, 16 to 32 µg/mL (≈ 20.6 to 41.2 µM); with N. gonorrhoeae WHO K, above 64 µg/mL; in the experiment on N. gonorrhoeae MS11, 16 to 32 µg/mL (≈ 20.6 to 41.2 µM). In addition, the MIC in the experiment on N. gonorrhoeae WHO Q is above 64 µg/mL. In addition, the IC50 in experiment [1] is above 250 µM.
On to `O=C(NCCCN1CCN(C(=O)N[C@H](C(=O)N[C@H]2Cc3ccc(F)c(C(=O)O)c3OB2O)c2cc(F)c(O)c(O)c2Cl)C(=O)C1=O)c1cccc(O)c1Cl` [Example 302, (R)-3-((S)-2-(4-(3-(2-chloro-3-hydroxybenzamido)propyl)-2,3-dioxopiperazine-1-carboxamido)-2-(2-chloro-5-fluoro-3,4-dihydroxyphenyl)acetamido)-7-fluoro-2-hydroxy-3,4-dihydro-2H-benzo[e][1,2]oxaborinine-8-carboxylic acid], for which the MIC with N. gonorrhoeae CDC-0197, in the experiment on N. gonorrhoeae WHO L, in the experiment on N. gonorrhoeae FA1090, with N. gonorrhoeae WHO M, with N. gonorrhoeae WHO K and in the experiment with N. gonorrhoeae MS11 was above 64 µg/mL in each case. In addition, the MIC with N. gonorrhoeae WHO Q is above 64 µg/mL. Further, in experiment [1], the IC50 was above 250 µM.
